Results as given in patent publication US20230279025A1, “KRAS G12D INHIBITORS” (Mirati Therapeutics, Inc., priority 2020, published 2023).

target: KRas G12D (Homo sapiens (Human), UniProt P01116, G12D); assay: KRas G12D Binding Assay (TR-FRET displacement of Cy5 labelled tracer); conditions: GDP-loaded KRAS G12D (amino acids 1:169), 60 minute incubation at 22° C.
Method: After a 60 minute incubation at 22° C., the reaction was measured using a PerkinElmer EnVision multimode plate reader via TR-FRET dual wavelength detection, and the percent of control (POC) calculated using a ratiometric emission factor. […] The POC values were fit to a 4-parameter logistic curve and the IC50 value was determined as the concentration where the curve crosses 50 POC.
ND stands for “not determined.”

Chain of KRas G12D (P01116 other isoform, or with tags, fused parts or gaps G12D): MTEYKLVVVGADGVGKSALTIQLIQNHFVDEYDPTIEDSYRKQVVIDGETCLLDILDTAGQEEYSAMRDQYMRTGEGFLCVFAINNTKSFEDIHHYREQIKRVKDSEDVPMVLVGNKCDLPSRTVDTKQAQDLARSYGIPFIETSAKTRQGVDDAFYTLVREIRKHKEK

Which IC50 does the source give for Fc1c(-c2c(OC(F)(F)F)ccc3[nH]ncc23)ncc2c(N3C[C@H]4CC[C@@H](C3)N4)nc(OCC34CCCN3CCC4)nc12 [Example 258, 4-((1R,5S)-3,8-diazabicyclo[3.2.1]octan-3-yl)-8-fluoro-2-((hexahydro-1H-pyrrolizin-7a-yl)methoxy)-7-(5-(trifluoromethoxy)-1H-indazol-4-yl)pyrido[4,3-d]pyrimidine] here?
Its IC50 is 6.5 nM.

For CCc1cccc2cc(O)cc(-c3ncc4c(N5C[C@H]6CC[C@@H](C5)N6)nc(OC[C@@]56CCCN5C[C@H](F)C6)nc4c3F)c12 [Example 259, 4-(4-((1R,5S)-3,8-diazabicyclo[3.2.1]octan-3-yl)-8-fluoro-2-(((2R,7aS)-2-fluorotetrahydro-1H-pyrrolizin-7a(5H)-yl)methoxy)pyrido[4,3-d]pyrimidin-7-yl)-5-ethylnaphthalen-2-ol], which IC50 is on record?
The IC50 was 0.8 nM.

With CN1C[C@H](OC(=O)NCCOCc2ccc(O)cc2)C[C@H]1COc1nc(N2C[C@H]3CC[C@@H](C2)N3)c2cnc(-c3cccc4cccc(Cl)c34)c(F)c2n1 [Example 260, (3R,5S)-5-(((4-((1R,5S)-3,8-diazabicyclo[3.2.1]octan-3-yl)-7-(8-chloronaphthalen-1-yl)-8-fluoropyrido[4,3-d]pyrimidin-2-yl)oxy)methyl)-1-methylpyrrolidin-3-yl (2-((4-hydroxybenzyl)oxy)ethyl)carbamate] as the molecule, how does the IC50 read?
Its IC50 is 107 nM.

For NCCOc1nc(N2C[C@H]3CC[C@@H](C2)N3)c2cnc(-c3cccc4cccc(Cl)c34)c(F)c2n1 [Example 261, 2-((4-((1R,5S)-3,8-diazabicyclo[3.2.1]octan-3-yl)-7-(8-chloronaphthalen-1-yl)-8-fluoropyrido[4,3-d]pyrimidin-2-yl)oxy)ethanamine], which IC50 is on record?
The IC50 was 8300 nM.

NC1(COc2nc(N3C[C@H]4CC[C@@H](C3)N4)c3cnc(-c4cccc5cccc(Cl)c45)c(F)c3n2)CCCCC1 [Example 262, 1-(((4-((1R,5S)-3,8-diazabicyclo[3.2.1]octan-3-yl)-7-(8-chloronaphthalen-1-yl)-8-fluoropyrido[4,3-d]pyrimidin-2-yl)oxy)methyl)cyclohexanamine] was tested. Which IC50 did it give?
The IC50 was 2260 nM.

How did the IC50 turn out when CCc1ccc(O)cc1-c1ncc2c(N3C[C@H]4CC[C@@H](C3)N4)nc(OCC34CCCN3CCC4)nc2c1F [Example 263, 3-(4-((1R,5S)-3,8-diazabicyclo[3.2.1]octan-3-yl)-8-fluoro-2-((hexahydro-1H-pyrrolizin-7a-yl)methoxy)pyrido[4,3-d]pyrimidin-7-yl)-4-ethylphenol] was run?
The IC50 was 1.5 nM.

For Fc1ccccc1-c1ncc2c(N3C[C@H]4CC[C@@H](C3)N4)nc(OCC34CCCN3CCC4)nc2c1F [Example 264, 4-((1R,5S)-3,8-diazabicyclo[3.2.1]octan-3-yl)-8-fluoro-7-(2-fluorophenyl)-2-((hexahydro-1H-pyrrolizin-7a-yl)methoxy)pyrido[4,3-d]pyrimidine], which IC50 is on record?
The IC50 was 4700 nM.

How did the IC50 turn out when Nc1cccc(F)c1-c1ncc2c(N3C[C@H]4CC[C@@H](C3)N4)nc(OCC34CCCN3CCC4)nc2c1F [Example 265, 2-(4-((1R,5S)-3,8-diazabicyclo[3.2.1]octan-3-yl)-8-fluoro-2-((hexahydro-1H-pyrrolizin-7a-yl)methoxy)pyrido[4,3-d]pyrimidin-7-yl)-3-fluoroaniline] was run?
Its IC50 is 794 nM.

Nc1c(Cl)cc(Cl)c(F)c1-c1ncc2c(N3C[C@H]4CC[C@@H](C3)N4)nc(OCC34CCCN3CCC4)nc2c1F [Example 266, 2-(4-((1R,5S)-3,8-diazabicyclo[3.2.1]octan-3-yl)-8-fluoro-2-((hexahydro-1H-pyrrolizin-7a-yl)methoxy)pyrido[4,3-d]pyrimidin-7-yl)-4,6-dichloro-3-fluoroaniline] was tested. Which IC50 did it give?
Its IC50 is 278 nM.

For Oc1ccccc1-c1ncc2c(N3C[C@H]4CC[C@@H](C3)N4)nc(OCC34CCCN3CCC4)nc2c1F [Example 267, 2-(4-((1R,5S)-3,8-diazabicyclo[3.2.1]octan-3-yl)-8-fluoro-2-((hexahydro-1H-pyrrolizin-7a-yl)methoxy)pyrido[4,3-d]pyrimidin-7-yl)phenol], which IC50 is on record?
Its IC50 is 3260 nM.

Which IC50 does the source give for CNc1c(F)cccc1-c1ncc2c(N3C[C@H]4CC[C@@H](C3)N4)nc(OCC34CCCN3CCC4)nc2c1F [Example 268, 2-(4-((1R,5S)-3,8-diazabicyclo[3.2.1]octan-3-yl)-8-fluoro-2-((hexahydro-1H-pyrrolizin-7a-yl)methoxy)pyrido[4,3-d]pyrimidin-7-yl)-6-fluoro-N-methylaniline] here?
The IC50 was 1550 nM.

With CCNc1c(F)cccc1-c1ncc2c(N3C[C@H]4CC[C@@H](C3)N4)nc(OCC34CCCN3CCC4)nc2c1F [Example 269, 2-(4-((1R,5S)-3,8-diazabicyclo[3.2.1]octan-3-yl)-8-fluoro-2-((hexahydro-1H-pyrrolizin-7a-yl)methoxy)pyrido[4,3-d]pyrimidin-7-yl)-N-ethyl-6-fluoroaniline] as the molecule, how does the IC50 read?
Its IC50 is 4040 nM.

How did the IC50 turn out when Oc1cccc(-c2ncc3c(N4C[C@H]5CC[C@@H](C4)N5)nc(OCC45CCCN4CCC5)nc3c2F)c1 [Example 271, 3-(4-((1R,5S)-3,8-diazabicyclo[3.2.1]octan-3-yl)-8-fluoro-2-((hexahydro-1H-pyrrolizin-7a-yl)methoxy)pyrido[4,3-d]pyrimidin-7-yl)phenol] was run?
Its IC50 is 1620 nM.

With Cc1ccccc1-c1ncc2c(N3C[C@H]4CC[C@@H](C3)N4)nc(OCC34CCCN3CCC4)nc2c1F [Example 272, 4-((1R,5S)-3,8-diazabicyclo[3.2.1]octan-3-yl)-8-fluoro-2-((hexahydro-1H-pyrrolizin-7a-yl)methoxy)-7-(o-tolyl)pyrido[4,3-d]pyrimidine] as the molecule, how does the IC50 read?
The IC50 was 1180 nM.

Which IC50 does the source give for COc1ccccc1-c1ncc2c(N3C[C@H]4CC[C@@H](C3)N4)nc(OCC34CCCN3CCC4)nc2c1F [Example 273, 4-((1R,5S)-3,8-diazabicyclo[3.2.1]octan-3-yl)-8-fluoro-2-((hexahydro-1H-pyrrolizin-7a-yl)methoxy)-7-(2-methoxyphenyl)pyrido[4,3-d]pyrimidine] here?
Its IC50 is 1340 nM.

For Cc1c(Cl)cccc1-c1ncc2c(N3C[C@H]4CC[C@@H](C3)N4)nc(OCC34CCCN3CCC4)nc2c1F [Example 274, 4-((1R,5S)-3,8-diazabicyclo[3.2.1]octan-3-yl)-7-(3-chloro-2-methylphenyl)-8-fluoro-2-((hexahydro-1H-pyrrolizin-7a-yl)methoxy)pyrido[4,3-d]pyrimidine], which IC50 is on record?
The IC50 was 35.9 nM.

For Cc1cccc(-c2ncc3c(N4C[C@H]5CC[C@@H](C4)N5)nc(OCC45CCCN4CCC5)nc3c2F)c1C [Example 275, 4-((1R,5S)-3,8-diazabicyclo[3.2.1]octan-3-yl)-7-(2,3-dimethylphenyl)-8-fluoro-2-((hexahydro-1H-pyrrolizin-7a-yl)methoxy)pyrido[4,3-d]pyrimidine], which IC50 is on record?
The IC50 was 53.8 nM.

How did the IC50 turn out when Cc1cccc(-c2ncc3c(N4C[C@H]5CC[C@@H](C4)N5)nc(OCC45CCCN4CCC5)nc3c2F)c1Cl [Example 276, 4-((1R,5S)-3,8-diazabicyclo[3.2.1]octan-3-yl)-7-(2-chloro-3-methylphenyl)-8-fluoro-2-((hexahydro-1H-pyrrolizin-7a-yl)methoxy)pyrido[4,3-d]pyrimidine] was run?
The IC50 was 16.2 nM.

Fc1c(-c2cccc(Cl)c2Cl)ncc2c(N3C[C@H]4CC[C@@H](C3)N4)nc(OCC34CCCN3CCC4)nc12 [Example 277, 4-((1R,5S)-3,8-diazabicyclo[3.2.1]octan-3-yl)-7-(2,3-dichlorophenyl)-8-fluoro-2-((hexahydro-1H-pyrrolizin-7a-yl)methoxy)pyrido[4,3-d]pyrimidine] was tested. Which IC50 did it give?
Its IC50 is 35.2 nM.

For C#CCc1ccc(O)cc1-c1ncc2c(N3C[C@H]4CC[C@@H](C3)N4)nc(OCC34CCCN3CCC4)nc2c1F [Example 279, 3-(4-((1R,5S)-3,8-diazabicyclo[3.2.1]octan-3-yl)-8-fluoro-2-((hexahydro-1H-pyrrolizin-7a-yl)methoxy)pyrido[4,3-d]pyrimidin-7-yl)-4-(prop-2-yn-1-yl)phenol], which IC50 is on record?
The IC50 was 1.6 nM.

How did the IC50 turn out when COCCNC(=O)O[C@@H]1C[C@@H](COc2nc(N3C[C@H]4CC[C@@H](C3)N4)c3cnc(-c4cccc5cccc(Cl)c45)c(F)c3n2)N(C)C1 [Example 280, (3R,5S)-5-(((4-((1R,5S)-3,8-diazabicyclo[3.2.1]octan-3-yl)-7-(8-chloronaphthalen-1-yl)-8-fluoropyrido[4,3-d]pyrimidin-2-yl)oxy)methyl)-1-methylpyrrolidin-3-yl (2-methoxyethyl)carbamate] was run?
The IC50 was 99.8 nM.

C#Cc1c(F)ccc2cccc(-c3ncc4c(N5C[C@H]6CC[C@@H](C5)N6)nc(OC[C@@]56CCCN5C[C@H](F)C6)nc4c3F)c12 [Example 281, 4-((1R,5S)-3,8-diazabicyclo[3.2.1]octan-3-yl)-7-(8-ethynyl-7-fluoronaphthalen-1-yl)-8-fluoro-2-(((2R,7aS)-2-fluorohexahydro-1H-pyrrolizin-7a-yl)methoxy)pyrido[4,3-d]pyrimidine] was tested. Which IC50 did it give?
Its IC50 is 0.9 nM.

Which IC50 does the source give for Oc1cc(-c2ncc3c(N4C[C@H]5CC[C@@H](C4)N5)nc(OC[C@@]45CCCN4C[C@H](F)C5)nc3c2F)c2c(F)cccc2c1 [Example 282, 4-(4-((1R,5S)-3,8-diazabicyclo[3.2.1]octan-3-yl)-8-fluoro-2-(((2R,7aS)-2-fluorohexahydro-1H-pyrrolizin-7a-yl)methoxy)pyrido[4,3-d]pyrimidin-7-yl)-5-fluoronaphthalen-2-ol] here?
Its IC50 is 0.7 nM.

With Oc1cc(Cl)c(C2CC2)c(-c2ncc3c(N4C[C@H]5CC[C@@H](C4)N5)nc(OC[C@@]45CCCN4C[C@H](F)C5)nc3c2F)c1 [Example 283, 3-(4-((1R,5S)-3,8-diazabicyclo[3.2.1]octan-3-yl)-8-fluoro-2-(((2R,7aS)-2-fluorohexahydro-1H-pyrrolizin-7a-yl)methoxy)pyrido[4,3-d]pyrimidin-7-yl)-5-chloro-4-cyclopropylphenol] as the molecule, how does the IC50 read?
Its IC50 is 0.7 nM.

With Oc1cc(Cl)c(C(F)(F)F)c(-c2ncc3c(N4C[C@H]5CC[C@@H](C4)N5)nc(OC[C@@]45CCCN4C[C@H](F)C5)nc3c2F)c1 [Example 284, 3-(4-((1R,5S)-3,8-diazabicyclo[3.2.1]octan-3-yl)-8-fluoro-2-(((2R,7aS)-2-fluorohexahydro-1H-pyrrolizin-7a-yl)methoxy)pyrido[4,3-d]pyrimidin-7-yl)-5-chloro-4-(trifluoromethyl)phenol] as the molecule, how does the IC50 read?
The IC50 was 0.1 nM.
